In PubChem BioAssay AID330 (DTP/NCI, 2004) one finds T/C data, which are given here for 25 compounds.

Structures are written as SMILES. Values joined by “and” are separate entries in the source; they are usually repeats but may differ in a detail not shown here. Equal entries are not always repeated. Toxic doses and inconclusive results are not listed.

For this assay, the system named is P388 leukemia ip, CD2F1 mice, survival T/C. The assay is described as follows: NCI In Vivo Anticancer Drug Screen. Data for tumor model P388 Leukemia (intraperitoneal) in CD2F1 (CDF1) mice. The settings on record: endpoint: median survival time, higher = longer survival. In a few lines:
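Mice carrying the transplanted tumor received test compound or vehicle. Survival was recorded in each group, and the value is the treated-group measurement divided by that of the vehicle-treated control group.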

The mark [1] stands for this setting: dose: 50.0 mg/kg/injection, schedule: Q01DX005 (ip), vehicle: Klucel (hydroxypropylcellulose) (HPC).
Setting [2] is: dose: 100.0 mg/kg/injection, schedule: Q01DX005 (ip), vehicle: Klucel (hydroxypropylcellulose) (HPC).
Setting [3] is: dose: 200.0 mg/kg/injection, schedule: Q01DX005 (ip), vehicle: Klucel (hydroxypropylcellulose) (HPC).
[4] abbreviates: dose: 60.0 mg/kg/injection, schedule: Q01DX005 (ip), vehicle: saline with Tween-80.
[5] abbreviates: dose: 120.0 mg/kg/injection, schedule: Q01DX005 (ip), vehicle: saline with Tween-80.
Where [6] appears, read: dose: 240.0 mg/kg/injection, schedule: Q01DX005 (ip), vehicle: saline with Tween-80.
The mark [7] stands for this setting: dose: 50.0 mg/kg/injection, schedule: Q01DX005 (ip), vehicle: saline.
The mark [8] stands for this setting: dose: 100.0 mg/kg/injection, schedule: Q01DX005 (ip), vehicle: saline.
Where [9] appears, read: dose: 200.0 mg/kg/injection, schedule: Q01DX005 (ip), vehicle: saline.
Where [10] appears, read: dose: 50.0 mg/kg/injection, schedule: Q01DX009 (ip), vehicle: Klucel (hydroxypropylcellulose) (HPC).
Setting [11] is: dose: 100.0 mg/kg/injection, schedule: Q01DX009 (ip), vehicle: Klucel (hydroxypropylcellulose) (HPC).
Setting [12] is: dose: 200.0 mg/kg/injection, schedule: Q01DX009 (ip), vehicle: Klucel (hydroxypropylcellulose) (HPC).
[13] abbreviates: dose: 100.0 mg/kg/injection, schedule: Q04DX002 (ip), vehicle: saline with Tween-80.
Where [14] appears, read: dose: 200.0 mg/kg/injection, schedule: Q04DX002 (ip), vehicle: saline with Tween-80.

With `COC1CC(C)(OC(C)=O)Cc2cc3c(c(OC(C)=O)c21)C(=O)c1c(OC(C)=O)cc2c(c1C3=O)OC1OC2(C)C(OC(C)=O)C(N(C)C)C1OC(C)=O` (stereo unspecified), the T/C is 102 % of control (dose: 1.25 mg/kg/injection, schedule: Q01DX009 (ip), vehicle: other); 112 % of control and 106 % of control (dose: 2.5 mg/kg/injection, schedule: Q01DX009 (ip), vehicle: other); 105 % of control and 101 % of control (dose: 5.0 mg/kg/injection, schedule: Q01DX009 (ip), vehicle: other); 114 % of control and 115 % of control (dose: 10.0 mg/kg/injection, schedule: Q01DX009 (ip), vehicle: other); 121 % of control (dose: 20.0 mg/kg/injection, schedule: Q01DX009 (ip), vehicle: other).

For `Cn1c(C(=O)NN)cc2cc(OCc3ccccc3)ccc21`, the T/C was 97 % of control under setting [1], 100 % of control under setting [2] and 98 % of control under setting [3].

`CCCCCCCCCCCC[N+]1([O-])CCCCC1`: the T/C is 89 % of control (dose: 12.5 mg/kg/injection, schedule: Q01DX009 (ip), vehicle: saline) and 91 % of control (dose: 25.0 mg/kg/injection, schedule: Q01DX009 (ip), vehicle: saline).

Turning to `Cc1cccc(Cl)c1NC(=O)Nc1cccc(C#N)c1`, the T/C under setting [4] was 93 % of control, the T/C under setting [5] was 89 % of control and the T/C under setting [6] was 98 % of control.

Regarding `NS(=O)(=O)c1ccc(NCc2cnc3ccccc3n2)cc1`, the T/C is 87 % of control (dose: 5.0 mg/kg/injection, schedule: Q01DX009 (ip), vehicle: saline); 94 % of control (dose: 10.0 mg/kg/injection, schedule: Q01DX009 (ip), vehicle: saline); 94 % of control (dose: 20.0 mg/kg/injection, schedule: Q01DX009 (ip), vehicle: saline).

Take `CCOC(=O)NN(C(=O)OCC)C1CCN=C1C(=O)OC` (stereo unspecified): the T/C under setting [7] was 98 % of control, the T/C under setting [8] is 88 % of control and the T/C under setting [9] is 98 % of control.

As for `CN(C)c1cccc2c(Cl)c(Cl)c3cccc(N(C)C)c3c12`, the T/C by setting is: under setting [4], 98 % of control; under setting [5], 100 % of control; under setting [6], 99 % of control.

Consider `Nc1ccc(C(O)(C(F)(F)F)C(F)(F)F)c(C(=O)O)c1`, for which the T/C by setting is: (dose: 100.0 mg/kg/injection, schedule: Q04DX003 (ip), vehicle: other) 104 % of control; (dose: 200.0 mg/kg/injection, schedule: Q04DX003 (ip), vehicle: other) 100 % of control; (dose: 400.0 mg/kg/injection, schedule: Q04DX003 (ip), vehicle: other) 109 % of control.

For `CSc1cccc(NC(=O)OCCOc2ccc([N+](=O)[O-])cc2)c1`, the T/C is 98 % of control under setting [10], 101 % of control under setting [11] and 99 % of control under setting [12].

`COC[C@H]1OC(=O)c2coc3c2[C@@]1(C)C1=C(C3=O)[C@@H]2CCC(=O)[C@@]2(C)C[C@H]1OC(C)=O`: the T/C runs as follows: (dose: 0.31 mg/kg/injection, schedule: Q01DX009 (ip), vehicle: saline with Tween-80) 115 % of control; (dose: 2.5 mg/kg/injection, schedule: Q01DX009 (ip), vehicle: saline with Tween-80) 99 % of control and 90 % of control.

For `COc1ccc(C2C(C#N)=C(N)Oc3c2c(C)nn3-c2ccccc2)cc1` (stereo unspecified), the T/C is, setting by setting: under setting [10], 89 % of control and 92 % of control; under setting [11], 99 % of control and 96 % of control; under setting [12], 90 % of control and 97 % of control.

Regarding `CC(=O)NCN(C)[N+](=O)[O-]`, the T/C is, setting by setting: (dose: 60.0 mg/kg/injection, schedule: Q01DX005 (ip), vehicle: saline) 115 % of control; (dose: 120.0 mg/kg/injection, schedule: Q01DX005 (ip), vehicle: saline) 97 % of control; (dose: 240.0 mg/kg/injection, schedule: Q01DX005 (ip), vehicle: saline) 108 % of control.

For `O=C(NCN1CCOCC1)c1ccccc1O`, the T/C under setting [13] was 98 % of control and the T/C under setting [14] was 104 % of control.

With `NC(=Nc1ccc(Cl)cc1)N/N=C/c1ccc(Cl)c(Cl)c1`, the T/C was 103 % of control (dose: 25.0 mg/kg/injection, schedule: Q04DX002 (ip), vehicle: saline with Tween-80); 100 % of control (dose: 40.0 mg/kg/injection, schedule: Q04DX002 (ip), vehicle: saline with Tween-80); 106 % of control under setting [13]; 107 % of control under setting [14]; 113 % of control (dose: 400.0 mg/kg/injection, schedule: Q04DX002 (ip), vehicle: saline with Tween-80).

Regarding `CC(=O)Oc1cc(C)c(OC(C)=O)c(OC(C)=O)c1C`, the T/C is, setting by setting: (dose: 100.0 mg/kg/injection, schedule: Q04DX002 (ip), vehicle: Klucel (hydroxypropylcellulose) (HPC)) 102 % of control; (dose: 200.0 mg/kg/injection, schedule: Q04DX002 (ip), vehicle: Klucel (hydroxypropylcellulose) (HPC)) 90 % of control.

Turning to `CC(C)(C)OC(=O)NC(CCCCNC(=O)C(F)(F)F)C(=O)O` (stereo unspecified), the T/C by setting is: under setting [10], 108 % of control; under setting [11], 104 % of control; under setting [12], 102 % of control.

Consider `CCCCCC(=O)NC1C(O)OC(CO)C(O)C1O` (stereo unspecified), for which the T/C by setting is: under setting [1], 106 % of control; under setting [2], 97 % of control.

As for `CNC(=N)c1ccc(NC(=N)c2ccc(NC(=N)c3ccc(NC(=N)c4ccc(C(=N)NC)cc4)cc3)cc2)cc1`, the T/C (dose: 9.0 mg/kg/injection, schedule: Q01DX009 (ip), vehicle: saline with Tween-80) is 154 % of control; the T/C (dose: 13.0 mg/kg/injection, schedule: Q01DX009 (ip), vehicle: saline with Tween-80) is 190 % of control; the T/C (dose: 20.0 mg/kg/injection, schedule: Q01DX009 (ip), vehicle: saline with Tween-80) is 254 % of control.

With `COC(=O)CC(CCCCCCCCCCCCC(C)C)OC(C)=O` (stereo unspecified), the T/C is, setting by setting: (dose: 8.13 mg/kg/injection, schedule: Q01DX005 (ip), vehicle: Klucel (hydroxypropylcellulose) (HPC)) 94 % of control; (dose: 16.25 mg/kg/injection, schedule: Q01DX005 (ip), vehicle: Klucel (hydroxypropylcellulose) (HPC)) 96 % of control; (dose: 32.5 mg/kg/injection, schedule: Q01DX005 (ip), vehicle: Klucel (hydroxypropylcellulose) (HPC)) 99 % of control; (dose: 65.0 mg/kg/injection, schedule: Q01DX005 (ip), vehicle: Klucel (hydroxypropylcellulose) (HPC)) 112 % of control.

For `COc1cc(C(=O)N/N=C/C(=O)O)cc(OC)c1OC`, the T/C was 101 % of control under setting [1], 104 % of control under setting [2] and 101 % of control under setting [3].

Turning to `O=C1NC(CCO)C(=O)NC1CCO` (stereo unspecified), the T/C reads like this: under setting [7], 100 % of control; under setting [8], 100 % of control; under setting [9], 106 % of control.

`COC1/C=C/OC2(C)Oc3c(C)c(O)c4c(O)c(c(C=NN5C(C)CN(Cc6ccc(Cl)cc6)CC5C)c(O)c4c3C2=O)NC(=O)/C(C)=C/C=C/C(C)C(O)C(C)C(O)C(C)C(OC(C)=O)C1C` (stereo unspecified): the T/C is 98 % of control (dose: 50.0 mg/kg/injection, schedule: Q01DX009 (ip), vehicle: saline with Tween-80); 95 % of control (dose: 100.0 mg/kg/injection, schedule: Q01DX009 (ip), vehicle: saline with Tween-80); 95 % of control (dose: 200.0 mg/kg/injection, schedule: Q01DX009 (ip), vehicle: saline with Tween-80).

Turning to `CC(=O)OC[C@@]1(C)[C@@H]2CC[C@]3(C)[C@H](C(=O)C=C4[C@@H]5CC(C)(C)CC[C@]5(C(=O)O)CC[C@]43C)[C@@]2(C)CC[C@@H]1OC(C)=O`, the T/C runs as follows: (dose: 25.0 mg/kg/injection, schedule: Q01DX005 (ip), vehicle: saline with Tween-80) 108 % of control; (dose: 50.0 mg/kg/injection, schedule: Q01DX005 (ip), vehicle: saline with Tween-80) 87 % of control and 95 % of control; (dose: 100.0 mg/kg/injection, schedule: Q01DX005 (ip), vehicle: saline with Tween-80) 93 % of control.

`C=Cc1c(C)c(O)cc2c1-c1ccc(O)c(C)c1CC2`: the T/C (dose: 25.0 mg/kg/injection, schedule: Q01DX009 (ip), vehicle: Klucel (hydroxypropylcellulose) (HPC)) is 104 % of control; the T/C under setting [10] was 100 % of control; the T/C under setting [11] was 92 % of control; the T/C under setting [12] was 93 % of control.

For the compound `O=C1c2cc3c(cc2C(=O)c2[nH]ncc21)OCO3`, the T/C by setting is: under setting [4], 92 % of control; under setting [5], 100 % of control; under setting [6], 96 % of control.
